“And” between values parts separate entries of the source, which are not always exact repeats. Equal entries are not always repeated. Where two headings read alike, the source gives them in different places.
Experiments:
A549 cells = test: cells; assay type: cell-based, human; conditions: Homo sapiens
Description: The human NSCLC cell lines (A549, PC-9, and PC-9/GR) and other cell lines (16HBE and LO2) were purchased from the American Type Culture Collection (ATCC, Manassas, VA, USA). […] All cell lines were cultivated at 37°C under 5% CO2.
The Cell Counting Kit-8 assays (Beyotime, Shanghai, China) were performed to assess cell viability. […] Microplate readers (Infinite F500, Tecan, Mannedorf, Switzerland) were used to measure the absorbance (A) at 450 nm. All samples were assessed in triplicate.

[1] = Preliminary pharmacokinetics in SD rats; assay type: in vivo; conditions: for AUC(0-inf) / AUC(0-t) / clearance / half-life / Cmax / Vd / concentration at 5 min / concentration at 10 min / concentration at 0.25 h / concentration at 0.5 h / concentration at 0.75 h / concentration at 1 h / concentration at 2 h / concentration at 4 h / concentration at 6 h / concentration at 8 h / concentration at 12 h / concentration at 24 h / MRT inf / k el: male, SD, rat, plasma; for Cmax: read-out: Maximum concentration (C max)
Description: We administered BH by gavage and intravenous administration to SD rats (male, 200–220 g, n = 6) after they had fasted for 12 h. For oral gavage, the BH was dissolved in DMSO/0.5% CMC-Na (5/95, v/v/), and for intravenous administration, it was dissolved in DMSO/0.9% NaCl (5/95, v/v/), and then the blood samples were collected at intervals to determine the pharmacokinetic (PK) profiles of SD rats.

Structure (SMILES): CC1=CC(=O)[C@@H](O)[C@]2(C)[C@H]3[C@@H](O)[C@H](O)[C@@]4(CO)OC[C@@]35[C@@H](C[C@@H]12)OC(=O)[C@H](O)[C@]54O [BH, Bruceine H]
- IC50 (A549 cells; A549, 24 h, Figure 2A, read-out: IC50 (24h)): 44.4 µM
- IC50 (A549 cells; A549, 48 h, read-out: IC50 (48 h)): 25.5 µM
- Concentration of BH in rat plasma, individual rats No1-No3 ([1]; i.v. 2 mg/kg, 5 min, 2 mg/kg): 484.6 ng/mL and 469.6 ng/mL
- Concentration of BH in rat plasma, individual rats No1-No3 ([1]; i.v. 2 mg/kg, 10 min, 2 mg/kg): 455.4 ng/mL and 450.6 ng/mL
- Concentration of BH in rat plasma, individual rats No1-No3 ([1]; i.v. 2 mg/kg, 0.25 h, 2 mg/kg): 398.5 ng/mL and 384.2 ng/mL
- Concentration of BH in rat plasma, individual rats No1-No3 ([1]; i.v. 2 mg/kg, 0.5 h, 2 mg/kg): 245.3 ng/mL and 234.1 ng/mL
- Concentration of BH in rat plasma, individual rats No1-No3 ([1]; i.v. 2 mg/kg, 0.75 h, 2 mg/kg): 177.7 ng/mL and 180.4 ng/mL
- Concentration of BH in rat plasma, individual rats No1-No3 ([1]; i.v. 2 mg/kg, 1 h, 2 mg/kg): 135.4 ng/mL and 119.6 ng/mL
- Concentration of BH in rat plasma, individual rats No1-No3 ([1]; i.v. 2 mg/kg, 2 h, 2 mg/kg): 95.3 ng/mL and 98.5 ng/mL
- Concentration of BH in rat plasma, individual rats No1-No3 ([1]; i.v. 2 mg/kg, 4 h, 2 mg/kg): 55.4 ng/mL and 51.2 ng/mL
- Concentration of BH in rat plasma, individual rats No1-No3 ([1]; i.v. 2 mg/kg, 6 h, 2 mg/kg): 40.4 ng/mL and 42.1 ng/mL
- Concentration of BH in rat plasma, individual rats No1-No3 ([1]; i.v. 2 mg/kg, 8 h, 2 mg/kg): 18.8 ng/mL and 25.4 ng/mL
- Concentration of BH in rat plasma, individual rats No1-No3 ([1]; i.v. 2 mg/kg, 12 h, 2 mg/kg): 12.3 ng/mL and 21.3 ng/mL
- Concentration of BH in rat plasma, individual rats No1-No3 ([1]; i.v. 2 mg/kg, 24 h, 2 mg/kg): 6.3 ng/mL and 10.2 ng/mL
- AUC(0-inf) ([1]; iv, 2 mg/kg, SD rats, 2 mg/kg iv, read-out: AUC0–inf): 1050 ng·h/mL
- AUC(0-t) ([1]; iv, 2 mg/kg, SD rats, 2 mg/kg iv, read-out: AUC0–last): 944 ng·h/mL
- clearance ([1]; iv, 2 mg/kg, SD rats, 2 mg/kg iv, read-out: Clearance (CL) (converted)): 31.9 mL/min/kg
- half-life ([1]; iv, 2 mg/kg, SD rats, 2 mg/kg iv, read-out: Half-life (T 1/2) (converted)): 9.69 h
- Cmax ([1]; iv, 2 mg/kg, SD rats, 2 mg/kg iv): 477 ng/mL
- Vd ([1]; iv, 2 mg/kg, SD rats, 2 mg/kg iv, read-out: Volume of distribution (V ss)): 26.5 L/kg
- concentration at 5 min ([1]; iv, 2 mg/kg, i.v. 2 mg/kg, 5 min, read-out: Concentration of BH in rat plasma, Mean): 477 ng/mL
- concentration at 5 min ([1]; iv, 2 mg/kg, i.v. 2 mg/kg, 5 min, read-out: Concentration of BH in rat plasma, individual rats No1-No3): 478 ng/mL
- concentration at 10 min ([1]; iv, 2 mg/kg, i.v. 2 mg/kg, 10 min, read-out: Concentration of BH in rat plasma, Mean): 442 ng/mL
- concentration at 10 min ([1]; iv, 2 mg/kg, i.v. 2 mg/kg, 10 min, read-out: Concentration of BH in rat plasma, individual rats No1-No3): 420 ng/mL
- concentration at 0.25 h ([1]; iv, 2 mg/kg, i.v. 2 mg/kg, 0.25 h, read-out: Concentration of BH in rat plasma, Mean): 384 ng/mL
- concentration at 0.25 h ([1]; iv, 2 mg/kg, i.v. 2 mg/kg, 0.25 h, read-out: Concentration of BH in rat plasma, individual rats No1-No3): 371 ng/mL
- concentration at 0.5 h ([1]; iv, 2 mg/kg, i.v. 2 mg/kg, 0.5 h, read-out: Concentration of BH in rat plasma, Mean): 236 ng/mL
- concentration at 0.5 h ([1]; iv, 2 mg/kg, i.v. 2 mg/kg, 0.5 h, read-out: Concentration of BH in rat plasma, individual rats No1-No3): 228 ng/mL
- concentration at 0.75 h ([1]; iv, 2 mg/kg, i.v. 2 mg/kg, 0.75 h, read-out: Concentration of BH in rat plasma, Mean): 177 ng/mL
- concentration at 0.75 h ([1]; iv, 2 mg/kg, i.v. 2 mg/kg, 0.75 h, read-out: Concentration of BH in rat plasma, individual rats No1-No3): 172 ng/mL
- concentration at 1 h ([1]; iv, 2 mg/kg, i.v. 2 mg/kg, 1 h, read-out: Concentration of BH in rat plasma, Mean): 127 ng/mL
- concentration at 1 h ([1]; iv, 2 mg/kg, i.v. 2 mg/kg, 1 h, read-out: Concentration of BH in rat plasma, individual rats No1-No3): 125 ng/mL
- concentration at 2 h ([1]; iv, 2 mg/kg, i.v. 2 mg/kg, 2 h, read-out: Concentration of BH in rat plasma, Mean): 99.1 ng/mL
- concentration at 2 h ([1]; iv, 2 mg/kg, i.v. 2 mg/kg, 2 h, read-out: Concentration of BH in rat plasma, individual rats No1-No3): 104 ng/mL
- concentration at 4 h ([1]; iv, 2 mg/kg, i.v. 2 mg/kg, 4 h, read-out: Concentration of BH in rat plasma, Mean): 54.9 ng/mL
- concentration at 4 h ([1]; iv, 2 mg/kg, i.v. 2 mg/kg, 4 h, read-out: Concentration of BH in rat plasma, individual rats No1-No3): 58 ng/mL
- concentration at 6 h ([1]; iv, 2 mg/kg, i.v. 2 mg/kg, 6 h, read-out: Concentration of BH in rat plasma, Mean): 40 ng/mL
- concentration at 6 h ([1]; iv, 2 mg/kg, i.v. 2 mg/kg, 6 h, read-out: Concentration of BH in rat plasma, individual rats No1-No3): 37.6 ng/mL
- concentration at 8 h ([1]; iv, 2 mg/kg, i.v. 2 mg/kg, 8 h, read-out: Concentration of BH in rat plasma, Mean): 24.5 ng/mL
- concentration at 8 h ([1]; iv, 2 mg/kg, i.v. 2 mg/kg, 8 h, read-out: Concentration of BH in rat plasma, individual rats No1-No3): 29.2 ng/mL
- concentration at 12 h ([1]; iv, 2 mg/kg, i.v. 2 mg/kg, 12 h, read-out: Concentration of BH in rat plasma, Mean): 17.9 ng/mL
- concentration at 12 h ([1]; iv, 2 mg/kg, i.v. 2 mg/kg, 12 h, read-out: Concentration of BH in rat plasma, individual rats No1-No3): 20 ng/mL
- concentration at 24 h ([1]; iv, 2 mg/kg, i.v. 2 mg/kg, 24 h, read-out: Concentration of BH in rat plasma, Mean): 7.37 ng/mL
- concentration at 24 h ([1]; iv, 2 mg/kg, i.v. 2 mg/kg, 24 h, read-out: Concentration of BH in rat plasma, individual rats No1-No3): 5.6 ng/mL
- AUC(0-t) ([1]; iv, 2 mg/kg, i.v., read-out: AUC (0-t), Mean): 944 ng·h/mL
- AUC(0-t) ([1]; iv, 2 mg/kg, i.v., read-out: AUC (0-t), individual rats No1-No3): 965 ng·h/mL
- AUC(0-inf) ([1]; iv, 2 mg/kg, i.v., read-out: AUC (0-∞), individual rats No1-No3): 1020 ng·h/mL
- clearance ([1]; iv, 2 mg/kg, i.v., read-out: CLz, Mean (converted)): 31.9 mL/min/kg
- clearance ([1]; iv, 2 mg/kg, i.v., read-out: CLz, individual rats No1-No3 (converted)): 32.7 mL/min/kg
- concentration at 24 h ([1]; iv, 2 mg/kg, i.v., read-out: C_last, Mean): 7.35 ng/mL
- concentration at 24 h ([1]; iv, 2 mg/kg, i.v., read-out: C_last, individual rats No1-No3): 5.6 ng/mL
- MRT inf ([1]; iv, 2 mg/kg, i.v., read-out: MRT (0-∞), Mean): 8.44 h
- MRT inf ([1]; iv, 2 mg/kg, i.v., read-out: MRT (0-∞), individual rats No1-No3): 6.47 h
- Vd ([1]; iv, 2 mg/kg, i.v., read-out: Vz, Mean): 26.5 L/kg
- Vd ([1]; iv, 2 mg/kg, i.v., read-out: Vz, individual rats No1-No3): 18.6 L/kg
- half-life ([1]; iv, 2 mg/kg, i.v., read-out: t1/2z, Mean (converted)): 9.69 h
- half-life ([1]; iv, 2 mg/kg, i.v., read-out: t1/2z, individual rats No1-No3 (converted)): 6.55 h
- k el ([1]; iv, 2 mg/kg, i.v., read-out: λz, Mean (converted)): 2.11e-05 s⁻¹
- k el ([1]; iv, 2 mg/kg, i.v., read-out: λz, individual rats No1-No3 (converted)): 2.94e-05 s⁻¹
- AUC(0-inf) ([1]; po, 10 mg/kg, SD rats, 10 mg/kg po, read-out: AUC0–inf): 976 ng·h/mL
- AUC(0-t) ([1]; po, 10 mg/kg, SD rats, 10 mg/kg po, read-out: AUC0–last): 961 ng·h/mL
- half-life ([1]; po, 10 mg/kg, SD rats, 10 mg/kg po, read-out: Half-life (T 1/2) (converted)): 3.35 h
- Cmax ([1]; po, 10 mg/kg, SD rats, 10 mg/kg po): 147 ng/mL
- concentration at 0.25 h ([1]; po, 10 mg/kg, p.o. 10 mg/kg, 0.25 h, read-out: Concentration of BH in rat plasma, Mean): 11.8 ng/mL
- concentration at 0.25 h ([1]; po, 10 mg/kg, p.o. 10 mg/kg, 0.25 h, read-out: Concentration of BH in rat plasma, individual rats No1-No3): 13.6 ng/mL
- concentration at 0.5 h ([1]; po, 10 mg/kg, p.o. 10 mg/kg, 0.5 h, read-out: Concentration of BH in rat plasma, Mean): 58.1 ng/mL
- concentration at 0.5 h ([1]; po, 10 mg/kg, p.o. 10 mg/kg, 0.5 h, read-out: Concentration of BH in rat plasma, individual rats No1-No3): 68.4 ng/mL
- concentration at 0.75 h ([1]; po, 10 mg/kg, p.o. 10 mg/kg, 0.75 h, read-out: Concentration of BH in rat plasma, Mean): 104 ng/mL
- concentration at 0.75 h ([1]; po, 10 mg/kg, p.o. 10 mg/kg, 0.75 h, read-out: Concentration of BH in rat plasma, individual rats No1-No3): 111 ng/mL
- concentration at 1 h ([1]; po, 10 mg/kg, p.o. 10 mg/kg, 1 h, read-out: Concentration of BH in rat plasma, Mean): 147 ng/mL
- concentration at 1 h ([1]; po, 10 mg/kg, p.o. 10 mg/kg, 1 h, read-out: Concentration of BH in rat plasma, individual rats No1-No3): 154 ng/mL
- concentration at 2 h ([1]; po, 10 mg/kg, p.o. 10 mg/kg, 2 h, read-out: Concentration of BH in rat plasma, Mean): 123 ng/mL
- concentration at 2 h ([1]; po, 10 mg/kg, p.o. 10 mg/kg, 2 h, read-out: Concentration of BH in rat plasma, individual rats No1-No3): 130 ng/mL
- concentration at 4 h ([1]; po, 10 mg/kg, p.o. 10 mg/kg, 4 h, read-out: Concentration of BH in rat plasma, Mean): 101 ng/mL
- concentration at 4 h ([1]; po, 10 mg/kg, p.o. 10 mg/kg, 4 h, read-out: Concentration of BH in rat plasma, individual rats No1-No3): 115 ng/mL

Source: PMC9024338, “Bruceine H Mediates EGFR-TKI Drug Persistence in NSCLC by Notch3-Dependent β-Catenin Activating FOXO3a Signaling” (Frontiers in Oncology, 2022)
